Legend:
Format in all cases: physicochemical
[1] = Karl Fischer water content
Method: Water content analysis was performed on Metrohm 890 Titando instrument. About 100 mg sample was added to the titrator, the water content is measured in % w/w by measuring the amount of iodine consumed as a result of reaction with water in the sample.

[2] = Thermogravimetric analysis (TGA) of Forms T14 and T15; conditions: temperature changed from 27.1° C. to 170° C.
Method: Procedure for Thermo Gravimetric Analysis (TGA) for Forms T14 and T15:
Thermogravimetric analysis was conducted on a TA instrument Q500 thermogravimetric analyzer. About 9.4 mg sample was placed into a tared TGA crucible and placed into a TGA furnace. The furnace was heated under nitrogen at a heating rate of 10° C./min up to 250° C.

[3] = Stability and flowability of the solid form (statement, no method given)

Row | moisture / water content (KF Titration method) [1] [%] | weight loss of the weight of the sample (TGA) [2] | flowability [3] | stability of the crystalline form [3] | SMILES
1 | 2.7 | about 2.786% | – | – | N#Cc1ccnc(N2C(=O)CC[C@H]2C(=O)N(c2cncc(F)c2)[C@H](C(=O)NC2CC(F)(F)C2)c2ccccc2Cl)c1 [Form T14, Ivosidenib]
2 | – | – | very good flowability | stable | N#Cc1ccnc(N2C(=O)CC[C@H]2C(=O)N(c2cncc(F)c2)[C@H](C(=O)NC2CC(F)(F)C2)c2ccccc2Cl)c1 [Form T11, Ivosidenib]
3 | 3.39 | about 3.899% | – | – | N#Cc1ccnc(N2C(=O)CC[C@H]2C(=O)N(c2cncc(F)c2)[C@H](C(=O)NC2CC(F)(F)C2)c2ccccc2Cl)c1 [Form T15, Ivosidenib]

From patent publication US11673880B2, “Solid state forms of ivosidenib” (ASSIA CHEMICAL INDUSTRIES LTD., priority 2017, dated 2023)
